Results taken from patent publication US11976083B2, “Inhibitors of peptidylarginine deiminases” (Gilead Sciences, Inc., priority 2020, dated 2024).

Target: T1, human PAD4 (Homo sapiens, UniProt Q9UM07)
T1 construct: human PAD4 (NM_012387), A2-P663, was PCR amplified; His-SUMO (N, cleaved yes); made in house; host or cells: E. coli BL21(DE3)
Assay: In vitro PAD4 BAEE biochemical assay
Settings: BAEE substrate 3 mM, 5 nM PAD4, 2 mM calcium chloride; geometric mean of multiple experiments
In short: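 Recombinant PAD4 (5 nM final) with 2 mM CaCl2 was preincubated with compound for 30 min at 25 °C in MOPS pH 7.6 buffer with DTT, then reacted with 3 mM BAEE for 2 h at 25 °C. Released ammonia was detected fluorimetrically with o-phthalaldehyde/DTT; IC50 from four-parameter fit, geometric mean of experiments.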

T1 sequence (Q9UM07 2-663): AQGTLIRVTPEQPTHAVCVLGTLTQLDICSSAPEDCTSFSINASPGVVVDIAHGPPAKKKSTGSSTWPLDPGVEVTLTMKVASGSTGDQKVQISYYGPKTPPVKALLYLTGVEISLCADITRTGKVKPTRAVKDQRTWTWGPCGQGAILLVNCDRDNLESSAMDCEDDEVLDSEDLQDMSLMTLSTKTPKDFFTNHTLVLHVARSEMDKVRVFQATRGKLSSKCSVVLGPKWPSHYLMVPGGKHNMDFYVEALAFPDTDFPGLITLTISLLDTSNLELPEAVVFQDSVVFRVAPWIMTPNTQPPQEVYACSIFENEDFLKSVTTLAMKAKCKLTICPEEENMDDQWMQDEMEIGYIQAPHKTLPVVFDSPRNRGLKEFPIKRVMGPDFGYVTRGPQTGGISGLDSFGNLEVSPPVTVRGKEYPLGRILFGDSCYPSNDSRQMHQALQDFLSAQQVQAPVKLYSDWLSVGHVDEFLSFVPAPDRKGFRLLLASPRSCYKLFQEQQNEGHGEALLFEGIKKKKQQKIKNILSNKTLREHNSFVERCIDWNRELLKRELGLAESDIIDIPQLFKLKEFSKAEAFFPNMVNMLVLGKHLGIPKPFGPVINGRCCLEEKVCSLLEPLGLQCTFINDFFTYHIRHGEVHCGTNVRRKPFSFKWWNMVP

| SMILES | IC50 |
| --- | --- |
| COc1cc(C(=O)N2CCC[C@@H](N)C2)cc2nc(-c3cc4ccc5nc4n3CCCCCC[C@@H]3CCN(C3=O)[C@@H]5C)n(C)c12 [Example 112, (2~{R},6~{R})-14-[5-[(3~{R})-3-aminopiperidine-1-carbonyl]-7-methoxy-1-methyl-benzimidazol-2-yl]-2-methyl-3,13,19-triazatetracyclo[11.5.2.1^{3,6}.0^{16,20}] henicosa-1(19),14,16(20),17-tetraen-21-one] | 81 nM |
| COc1cc(C(=O)N2CC[C@@H](OCC(F)F)[C@@H](N)C2)cc2nc(-c3cc4ccc5nc4n3CCCCC[C@@H]3C[C@H]3C(=O)N[C@@H]5C)n(C)c12 [Example 489, (2~{R},5~{R}, 7~{R})-14-[5-[(3~{S},4~{R})-3-amino-4-(2,2-difluoroethoxy)piperidine-1-carbonyl]-7-methoxy-1-methyl-benzimidazol-2-yl]-2-methyl-3,13,19-triazatetracyclo [11.5.2.0^{5,7}.0^{16,20}] icosa-1(19),14,16(20), 17-tetraen-4-one] | 78 nM |
| COc1cc(C(=O)N2[C@H]3CC[C@@H]2[C@H](N)C3)cc2nc(-c3cc4ccc5nc4n3CCCCN(C)C(=O)N[C@@H]5C)c(C)n12 [Example 209, (9˜{R})-15-[7-[(1˜{R},2˜{R},4˜{S})-2-amino-7-azabicyclo[2.2.1]heptane-7-carbonyl]-5-methoxy-3-methyl-imidazo[1,2-a]pyridin-2-yl]-6,9-dimethyl-1,6,8,17-tetrazatricyclo[8.5.2.0^{13,16}]heptadeca-10(17),11,13(16),14-tetraen-7-one] | 74 nM |
| C[C@H]1NC(=O)C(C)(C)CCCCCCn2c(-c3nc4cc(C(=O)N5CCC[C@@H](N)C5)c(F)cc4n3C3CC3)cc3ccc1nc32 [Example 169, (11~{R})-17-[5-[(3~{R})-3-aminopiperidine-1-carbonyl]-1-cyclopropyl-6-fluoro-benzimidazol-2-yl]-8,8,11-trimethyl-1,10,19-triazatricyclo[10.5.2.0^{15,18}]nonadeca-12(19),13,15(18),16-tetraen-9-one] | 69 nM |
| COc1cc(C(=O)N2CC[C@@H](OC)[C@@H](N)C2)cc2nc(-c3cc4ccc5nc4n3CCCC(F)(F)C[C@H]3C[C@@H]3C(=O)N[C@@H]5C)n(C)c12 [Example 856, (2~{R},5~{S},7~{R})-14-[5-[(3~{S),4~{R})-3-amino-4-methoxy-piperidine-1-carbonyl]-7-methoxy-1-methyl-benzimidazol-2-yl]-9,9-difluoro-2-methyl-3,13,19-triazatetracyclo [11.5.2.0^{5,7}.0^{16,20}] icosa-1(19),14,16(20), 17-tetraen-4-one] | 156 nM |
| C[C@H]1NC(=O)[C@@H]2C[C@H]2CCCCCn2c(-c3nc4cc(C(=O)N[C@H]5CNCC[C@@H]5F)c(F)cc4n3CCOc3ccccc3)cc3ccc1nc32 [Example 429] | 68 nM |
| CO[C@@H]1CCN(C(=O)c2ccc3c(c2)nc(-c2cc4ccc5nc4n2CC(F)(F)CCC[C@@H]2C[C@H]2C(=O)N[C@@H]5C)n3C2CC2)C[C@@H]1N [Example 690, (2~{R},5~{R},7~{R})-14-[5-[(3~{S},4~{R})-3-amino-4-methoxy-piperidine-1-carbonyl]-1-cyclopropyl-benzimidazol-2-yl]-11,11-difluoro-2-methyl-3,13,19-triazatetracyclo [11.5.2.0^{5,7}.0^{16,20}] icosa-1(19),14,16(20), 17-tetraen-4-one] | 54 nM |
| COc1cc(C(=O)N2CC[C@@H](OC)[C@@H](N)C2)cc2nc(-c3cc4ccc5nc4n3CCCCCCNC(=O)c3ncccc3-5)n(C)c12 [Example 675, 17-[5-[(3~{S},4~{R})-3-amino-4-methoxy-piperidine-1-carbonyl]-7-methoxy-1-methyl-benzimidazol-2-yl]-6,9,16,22-tetrazatetracyclo [14.5.2.0^{2,7}.0^{19,23}] tricosa-1(22),2,4,6,17,19(23), 20-heptaen-8-one] | 559 nM |
| COc1cc(C(=O)N2CCC[C@@H](N)C2)cn2nc(-c3cc4ccc5nc4n3CCCCCCC(C)(C)C(=O)N[C@@H]5C)c(C)c12 [Example 27, (11~{R})-17-[6-[(3~{R})-3-aminopiperidine-1-carbonyl]-4-methoxy-3-methyl-pyrazolo[1,5-a]pyridin-2-yl]-8,8,11-trimethyl-1,10,19-triazatricyclo[10.5.2.0^{15,18}]nonadeca-12(19),13,15(18),16-tetraen-9-one] | 201 nM |
| COc1cc(C(=O)N2[C@H]3CC[C@@H]2[C@H](N)C3)cc2nc(-c3cc4ccc5nc4n3CCCCCCC(=O)Nc3ccncc3-5)n(C)c12 [Example 90, 17-[5-[(1~{R},2~{R},4~{S})-2-amino-7-azabicyclo[2.2.1]heptane-7-carbonyl]-7-methoxy-1-methyl-benzimidazol-2-yl]-4,8,16,22-tetrazatetracyclo[14.5.2.0^{2,7}.0^{19,23}] tricosa-1(22),2,4,6,17,19(23),20-heptaen-9-one] | 497 nM |
| CCn1c(-c2cc3ccc4nc3n2CCCCCCC(C)(C)C(=O)N[C@@H]4C)nc2cc(C(=O)N[C@H]3CNCC[C@@H]3F)c(F)cc21 [Example 423, 1-ethyl-6-fluoro-~{N}-[(3~{S},4~{S})-4-fluoro-3-piperidyl]-2-[(11~{R})-8,8,11-trimethyl-9-oxo-1,10,19-triazatricyclo[10.5.2.0^{15,18}]nonadeca-12(19),13,15(18),16-tetraen-17-yl]benzimidazole-5-carboxamide] | 64 nM |

Further lines, results first:

| IC50 | SMILES |
| --- | --- |
| 15 nM | C[C@@H]1[C@H](N)CCCN1C(=O)c1cc(F)c2c(c1)nc(-c1cc3ccc4nc3n1CC(F)(F)CCC[C@@H]1C[C@H]1C(=O)N[C@@H]4C)n2C1CC1 [Example 639, (2~{R},5~{R},7~{R})-14-[5-[(2~{R},3~{R})-3-amino-2-methyl-piperidine-1-carbonyl]-1-cyclopropyl-7-fluoro-benzimidazol-2-yl]-11,11-difluoro-2-methyl-3,13,19-triazatetracyclo[11.5.2.0^ {5,7}.0^{16,20}]icosa-1(19),14,16(20),17-tetraen-4-one] |
| 17 nM | C[C@H]1NC(=O)c2cnc(C(F)F)cc2CCCCCn2c(-c3nc4cc(C(=O)N5C[C@H](N)[C@@H]6CC[C@H]5C6)cc(F)c4n3C3CC3)cc3ccc1nc32 [Example 674, (2~{R})-17-[5-[(1~{S},4~ {R},5~{R})-4-amino-2-azabicyclo[3.2.1]octane-2-carbonyl]-1-cyclopropyl-7-fluoro-benzimidazol-2-yl]-8-(difluoromethyl)-2-methyl-3,7,16,22-tetrazatetracyclo[14.5.2.0^ {5,10).0^{19,23}]tricosa-1(22),5(10),6,8,17,19(23), 20-heptaen-4-one] |
| 6490 nM | COc1cc(C(=O)N[C@H]2CNC[C@@H]2F)cc2nc(-c3cc4ccc5nc4n3CCCCCCC(C)(C)C(=O)N[C@@H]5C)n(C)c12 [Example 197, ~{N}-[(3~{S},4~{S})-4-fluoropyrrolidin-3-yl]-7-methoxy-1-methyl-2-[(11~{R})-8,8,11-trimethyl-9-oxo-1,10,19-triazatricyclo[10.5.2.0^{15,18}]nonadeca-12(19),13,15(18),16-tetraen-17-yl]benzimidazole-5-carboxamide] |
| 96 nM | CO[C@@H]1CCN(C(=O)c2cc(F)c3c(c2)nc(-c2cc4ccc5nc4n2CCCCCc2cc(Cl)ncc2C(=O)N[C@@H]5C)n3C)C[C@@H]1N [Example 744, (2~{R})-17-[5-[(3~{S},4~ {R})-3-amino-4-methoxy-piperidine-1-carbonyl]-7-fluoro-1-methyl-benzimidazol-2-yl]-8-chloro-2-methyl-3,7,16,22-tetrazatetracyclo [14.5.2.0^{5,10).0^{19,23}] tricosa-1(22),5(10),6,8,17,19(23), 20-heptaen-4-one] |
| 30 nM | C[C@H]1NC(=O)c2ccc(Cl)nc2CCCCCn2c(-c3nc4cc(C(=O)N5C[C@H](N)[C@@H]6CC[C@H]5C6)cc(F)c4n3CC3CC3)cc3ccc1nc32 [Example 921, (2~{R})-17-[5-[(1~{S},4~{R},5~ {R})-4-amino-2-azabicyclo [3.2.1]octane-2-carbonyl]-1-(cyclopropylmethyl)-7-fluoro-benzimidazol-2-yl]-8-chloro-2-methyl-3,9,16,22-tetrazatetracyclo[14.5.2.0^ {5,10}.0^{19,23}]tricosa-1(22),5(10),6,8,17,19(23),20-heptaen-4-one] |
| 168 nM | C[C@H]1NC(=O)c2ccc(C#Cc3ccccc3)nc2CCCCCn2c(-c3nc4cc(C(=O)N5C[C@H](N)[C@@H]6CC[C@H]5C6)cc(F)c4n3C3CC3)cc3ccc1nc32 [Example 820, (2˜{R})-17-[5-[(1˜{S},4˜{R},5˜{R})-4-amino-2-azabicyclo[3.2.1]octane-2-carbonyl]-1-cyclopropyl-7-fluoro-benzimidazol-2-yl]-2-methyl-8-(2-phenylethynyl)-3,9,16,22-tetrazatetracyclo[14.5.2.0^{5,10}.0^{19,23}]tricosa-1(21),5(10),6,8,17,19,22-heptaen-4-one] |
| 270 nM | COc1cc(C(=O)N2CC[C@@H](OC(F)F)[C@@H](N)C2)cc2nc(-c3cc4ccc5nc4n3CC(F)(F)CCCC[C@@](C)(C(F)(F)F)C(=O)N[C@@H]5C)n(C)c12 [Example 730, (8~{R},11~{R})-17-[5-[(3~ {S},4~{R})-3-amino-4-(difluoromethoxy)piperidine-1-carbonyl]-7-methoxy-1-methyl-benzimidazol-2-yl]-3,3-difluoro-8,11-dimethyl-8-(trifluoromethyl)-1,10,19-triazatricyclo [10.5.2.0^{15,18}]nonadeca-12(19),13,15(18),16-tetraen-9-one] |
